According to PubChem BioAssay (NCI):
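Five concentrations, 48 hours, 96-well plates. GI50 marks 50% less growth. TGI marks complete inhibition of growth.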

How the values were obtained:
Experiment in all cases: NCI anticancer screen, dose series, 48 h
786-0 renal = tested on: 786-0 renal
A498 renal = tested on: A498 renal
A549 NSCLC = tested on: A549 NSCLC
ACHN renal = tested on: ACHN renal
BT-549 breast = tested on: BT-549 breast
CAKI-1 renal = tested on: CAKI-1 renal
CCRF-CEM leukemia = tested on: CCRF-CEM leukemia
COLO 205 colon = tested on: COLO 205 colon
DU-145 prostate = tested on: DU-145 prostate
EKVX NSCLC = tested on: EKVX NSCLC
HCC-2998 colon = tested on: HCC-2998 colon
HCT-116 colon = tested on: HCT-116 colon
HCT-15 colon = tested on: HCT-15 colon
HL-60(TB) leukemia = tested on: HL-60(TB) leukemia
HOP-62 NSCLC = tested on: HOP-62 NSCLC
HOP-92 NSCLC = tested on: HOP-92 NSCLC
HS 578T breast = tested on: HS 578T breast
HT29 colon = tested on: HT29 colon
IGROV1 ovarian = tested on: IGROV1 ovarian
K-562 leukemia = tested on: K-562 leukemia
KM12 colon = tested on: KM12 colon
LOX IMVI melanoma = tested on: LOX IMVI melanoma
M14 melanoma = tested on: M14 melanoma
MALME-3M melanoma = tested on: MALME-3M melanoma
MCF7 breast = tested on: MCF7 breast
MDA-MB-231 breast = tested on: MDA-MB-231 breast
MDA-MB-435 = tested on: MDA-MB-435
MOLT-4 leukemia = tested on: MOLT-4 leukemia
NCI-H226 lung = tested on: NCI-H226 lung
NCI-H23 lung = tested on: NCI-H23 lung
NCI-H460 lung = tested on: NCI-H460 lung
NCI-H522 lung = tested on: NCI-H522 lung
NCI/ADR-RES ovarian = tested on: NCI/ADR-RES ovarian
OVCAR-3 ovarian = tested on: OVCAR-3 ovarian
OVCAR-4 ovarian = tested on: OVCAR-4 ovarian
OVCAR-5 ovarian = tested on: OVCAR-5 ovarian
OVCAR-8 ovarian = tested on: OVCAR-8 ovarian
PC-3 prostate = tested on: PC-3 prostate
RPMI-8226 leukemia = tested on: RPMI-8226 leukemia
RXF 393 renal = tested on: RXF 393 renal
SF-268 CNS = tested on: SF-268 CNS
SF-295 CNS = tested on: SF-295 CNS
SF-539 CNS = tested on: SF-539 CNS
SK-MEL-2 melanoma = tested on: SK-MEL-2 melanoma
SK-MEL-28 melanoma = tested on: SK-MEL-28 melanoma
SK-MEL-5 melanoma = tested on: SK-MEL-5 melanoma
SK-OV-3 ovarian = tested on: SK-OV-3 ovarian
SN12C renal = tested on: SN12C renal
SNB-19 CNS = tested on: SNB-19 CNS
SNB-75 CNS = tested on: SNB-75 CNS
SR leukemia = tested on: SR leukemia
SW-620 colon = tested on: SW-620 colon
T-47D breast = tested on: T-47D breast
TK-10 renal = tested on: TK-10 renal
U251 CNS = tested on: U251 CNS
UACC-257 melanoma = tested on: UACC-257 melanoma
UACC-62 melanoma = tested on: UACC-62 melanoma
UO-31 renal = tested on: UO-31 renal

COc1cnc2c(c1)C(=O)c1c-2n(CCCn2ccnc2)c(=O)c2cc(OC)c(OC)cc12
GI50 (786-0 renal): 55.1 nM | TGI (786-0 renal): 1280 nM | GI50 (A498 renal): 9440 nM | TGI (A498 renal): 23300 nM | GI50 (A549 NSCLC): 465 nM | TGI (A549 NSCLC): 11700 nM | GI50 (ACHN renal): 37.6 nM | TGI (ACHN renal): 1090 nM | GI50 (BT-549 breast): 416 nM | TGI (BT-549 breast): 6620 nM | GI50 (CAKI-1 renal): 39.1 nM | TGI (CAKI-1 renal): 3410 nM | GI50 (CCRF-CEM leukemia): 35.3 nM | TGI (CCRF-CEM leukemia): 4470 nM | GI50 (COLO 205 colon): 654 nM | TGI (COLO 205 colon): 2380 nM | GI50 (DU-145 prostate): 60.8 nM | TGI (DU-145 prostate): 1900 nM | GI50 (EKVX NSCLC): 1680 nM | TGI (EKVX NSCLC): 7240 nM | GI50 (HCC-2998 colon): 899 nM | TGI (HCC-2998 colon): 3060 nM | GI50 (HCT-116 colon): 113 nM | TGI (HCT-116 colon): 1710 nM | GI50 (HCT-15 colon): 1210 nM | TGI (HCT-15 colon): 3140 nM | GI50 (HL-60(TB) leukemia): 45 nM | TGI (HL-60(TB) leukemia): 3670 nM | GI50 (HOP-62 NSCLC): 41.9 nM | TGI (HOP-62 NSCLC): 1300 nM | GI50 (HOP-92 NSCLC): 935 nM | TGI (HOP-92 NSCLC): 10800 nM | GI50 (HS 578T breast): 4770 nM | TGI (HS 578T breast): 17500 nM | GI50 (HT29 colon): 242 nM | TGI (HT29 colon): 1750 nM | GI50 (IGROV1 ovarian): 1240 nM | TGI (IGROV1 ovarian): 6210 nM | GI50 (K-562 leukemia): 85.2 nM | TGI (K-562 leukemia): 5860 nM | GI50 (KM12 colon): 1670 nM | TGI (KM12 colon): 7690 nM | GI50 (LOX IMVI melanoma): 42.2 nM | TGI (LOX IMVI melanoma): 1120 nM | GI50 (M14 melanoma): 60 nM | TGI (M14 melanoma): 1410 nM | GI50 (MALME-3M melanoma): 1390 nM | TGI (MALME-3M melanoma): 3040 nM | GI50 (MCF7 breast): 29.8 nM | TGI (MCF7 breast): 1400 nM | GI50 (MDA-MB-231 breast): 3550 nM | TGI (MDA-MB-231 breast): 11900 nM | GI50 (MDA-MB-435): 710 nM | TGI (MDA-MB-435): 4790 nM | GI50 (MOLT-4 leukemia): 36.7 nM | TGI (MOLT-4 leukemia): 2530 nM | GI50 (NCI-H226 lung): 190 nM | TGI (NCI-H226 lung): 5000 nM | GI50 (NCI-H23 lung): 72.1 nM | TGI (NCI-H23 lung): 1620 nM | GI50 (NCI-H460 lung): 36.5 nM | TGI (NCI-H460 lung): 1320 nM | GI50 (NCI-H522 lung): 80.3 nM | TGI (NCI-H522 lung): 1610 nM | GI50 (NCI/ADR-RES ovarian): 361 nM | TGI (NCI/ADR-RES ovarian): 4410 nM | GI50 (OVCAR-3 ovarian): 594 nM | TGI (OVCAR-3 ovarian): 2010 nM | GI50 (OVCAR-4 ovarian): 1540 nM | TGI (OVCAR-4 ovarian): 3530 nM | GI50 (OVCAR-5 ovarian): 1030 nM | TGI (OVCAR-5 ovarian): 3100 nM | GI50 (OVCAR-8 ovarian): 419 nM | TGI (OVCAR-8 ovarian): 2950 nM | GI50 (PC-3 prostate): 631 nM | TGI (PC-3 prostate): 8450 nM | GI50 (RPMI-8226 leukemia): 167 nM | TGI (RPMI-8226 leukemia): 3580 nM | GI50 (RXF 393 renal): 354 nM | TGI (RXF 393 renal): 2190 nM | GI50 (SF-268 CNS): 72.9 nM | TGI (SF-268 CNS): 14100 nM | GI50 (SF-295 CNS): 38.1 nM | TGI (SF-295 CNS): 1410 nM | GI50 (SF-539 CNS): 52.7 nM | TGI (SF-539 CNS): 889 nM | GI50 (SK-MEL-2 melanoma): 17300 nM | TGI (SK-MEL-2 melanoma): 31500 nM | GI50 (SK-MEL-28 melanoma): 1310 nM | TGI (SK-MEL-28 melanoma): 3610 nM | GI50 (SK-MEL-5 melanoma): 258 nM | TGI (SK-MEL-5 melanoma): 1480 nM | GI50 (SK-OV-3 ovarian): 119 nM | TGI (SK-OV-3 ovarian): 2270 nM | GI50 (SN12C renal): 56.3 nM | TGI (SN12C renal): 4020 nM | GI50 (SNB-19 CNS): 68 nM | TGI (SNB-19 CNS): 13300 nM | GI50 (SNB-75 CNS): 67.3 nM | TGI (SNB-75 CNS): 1210 nM | GI50 (SR leukemia): 20.4 nM | TGI (SR leukemia): 6640 nM | GI50 (SW-620 colon): 127 nM | TGI (SW-620 colon): 2130 nM | GI50 (T-47D breast): 41.1 nM | TGI (T-47D breast): 1900 nM | GI50 (TK-10 renal): 2940 nM | TGI (TK-10 renal): 8090 nM | GI50 (U251 CNS): 48.1 nM | TGI (U251 CNS): 3280 nM | GI50 (UACC-257 melanoma): 627 nM | TGI (UACC-257 melanoma): 2780 nM | GI50 (UACC-62 melanoma): 40.1 nM | TGI (UACC-62 melanoma): 1470 nM | GI50 (UO-31 renal): 65.9 nM | TGI (UO-31 renal): 1370 nM
